Experimental data: patent US20120225904A1, “New 7-Phenyl-[1,2,4]triazolo[4,3-a]Pyridin-3(2H)-One Derivatives” (priority 2009, published 2012)

target: T1, human p38alfa (SAPKa) enzyme (Homo sapiens, UniProt Q16539); test: p38alpha enzymatic inhibition assay (FRET, ATF2 substrate); assay type: biochemical; conditions: 1 h pre-incubation; ATF2 0.62 μM, ATP 60 μM; 1 h at 25° C.; read-out: p38α IC50
T1 construct: purchased University of Dundee
Experimental: Enzymatic activity assay was performed in 96-well microtiter plates (Corning, catalog number # 3686) using a total volume of 50 μl of an assay buffer composed of 50 mM HEPES (4-(2-hydroxyethyl)-1-piperazineethanesulfonic acid) pH 7.5, 10 mM MgCl2, 1.75 mM Na3VO4.
Various concentrations of the test compound or vehicle controls were pre-incubated for one hour with 0.055 μg/ml of the human p38alfa (SAPKa) enzyme (obtained from University of Dundee). The reaction started by addition of biotinylated ATF2 substrate and ATP in concentrations around their Km values (final concentration 0.62 μM and 60 μM respectively) and took place for one hour at 25° C. Addition of the detection reagents, streptavidin—XL665 and anti-phosphoresidue antibody coupled to Europium cryptate, caused the juxtaposition of the cryptate and the XL665 fluorophore, resulting in fluorescence energy transfer (FRET).The FRET intensity depends on the amount of bounded cryptate antibody, which is proportional to the extent of substrate phosphorylation. FRET intensity was measured using Victor 2V spectrofluorometer.
Data were analyzed by non-linear regression (Hill equation) to generate a dose-response curve. The calculated IC50 value is the concentration of the test compound that caused a 50% decrease in the maximal FRET intensity.

T1 sequence (Q16539 whole entry): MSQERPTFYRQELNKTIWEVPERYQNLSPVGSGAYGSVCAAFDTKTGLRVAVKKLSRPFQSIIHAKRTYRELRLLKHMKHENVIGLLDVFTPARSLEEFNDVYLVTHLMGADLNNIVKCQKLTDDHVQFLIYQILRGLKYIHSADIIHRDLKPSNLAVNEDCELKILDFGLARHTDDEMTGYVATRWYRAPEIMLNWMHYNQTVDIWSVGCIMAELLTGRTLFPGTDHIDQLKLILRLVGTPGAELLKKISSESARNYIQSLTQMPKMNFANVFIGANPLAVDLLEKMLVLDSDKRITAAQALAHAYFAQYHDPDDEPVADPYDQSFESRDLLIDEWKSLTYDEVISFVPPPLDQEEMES

| IC50 | Structure (SMILES) |
| --- | --- |
| 2 nM | Cc1c(F)cc(C(=O)NC2CC2)cc1-c1ccn2c(=O)n(CC(C)(C)C)nc2c1 [Example 2, N-cyclopropyl-3-[2-(2,2-dimethylpropyl)-3-oxo-2,3-dihydro[1,2,4]triazolo[4,3-a]pyridin-7-yl]-5-fluoro-4-methylbenzamide] |
| 1.08 nM | Cc1c(F)cc(C(=O)NC2CC2)cc1-c1ccn2c(=O)n(-c3ccccc3Cl)nc2c1 [Example 7, 3-[2-(2-Chlorophenyl)-3-oxo-2,3-dihydro[1,2,4]triazolo[4,3-a]pyridin-7-yl]-N-cyclopropyl-5-fluoro-4-methylbenzamide] |
| 12 nM | Cc1ccc2c(NC3CC3)noc2c1-c1ccn2c(=O)n(CC(C)(C)C)nc2c1 [Example 11] |
